Measurements from patent publication US7488844B2, “Therapeutic agents” (AstraZeneca AB, priority 2001, dated 2009).

biological target: T1, PPARγ (Homo sapiens, UniProt P37231); test: GAL4-PPARγ ligand binding domain luciferase reporter transactivation in transiently transfected U2-OS cells; format: cell-based; conditions: selectivity PPARα over PPARγ
T1 construct: expressed in transfected cells; host or cells: U2-OS (human osteogenic sarcoma), transient electroporation
T1 sequence (P37231 238-503 limits assumed): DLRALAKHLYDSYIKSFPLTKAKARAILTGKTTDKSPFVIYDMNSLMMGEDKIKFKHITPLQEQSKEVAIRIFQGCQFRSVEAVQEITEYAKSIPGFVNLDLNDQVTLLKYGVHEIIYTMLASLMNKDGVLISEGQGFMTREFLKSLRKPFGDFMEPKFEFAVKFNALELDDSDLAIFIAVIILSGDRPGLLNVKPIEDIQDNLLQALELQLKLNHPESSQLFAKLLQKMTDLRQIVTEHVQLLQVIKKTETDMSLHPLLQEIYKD
Protocol: The compounds of Examples 5-9 were tested in the assays described in WO03/051821.
Compounds were dissolved in DMSO to obtain 16 mM stock solutions. Before assays, stock solutions were further diluted in DMSO and culture media.
U2-OS, (Osteogenic sarcoma, Human) was purchased from ATCC, USA. Cells were expanded and refrozen in batches from passage number six. Cells were cultured in Dulbecco's modified Eagle medium (DMEM) with 25 mM glucose, 2 mM glutamin or 4 mM L-alanyl-L-glutamine, 10% fetal calf serum, at 5% CO2. Phosphate buffered saline (PBS) without addition of calcium or magnesium was used. All cell culture reagents were from Gibco (USA) and 96-well cell culture plates were purchased from Wallah.
Standard recombinant DNA techniques were carried out as described by Ausubel (7). The Luciferase reporter vector, pGL5UAS (clone consists of five copies of the GAL4 DNA binding sequence, 5′-[…]-3′, cloned into the SacI/XhoI sites of pGL3-Promoter (Promega). The SacI/XhoI fragment carrying the UAS sites was constructed using annealed overlapping oligonucleotides.
Expression vectors used are based upon pSG5 (Stratagene). All vectors contain an EcoRI/NheI fragment encoding the DNA binding domain of GAL4 (encoding amino acid positions 1-145 of database accession number P04386) followed by an in-frame fusion to a fragment encoding the nuclear localisation sequence from T antigen of Polyoma Virus.
The nuclear localisation sequence was constructed using annealed overlapping oligonucleotides creating NheI/KpnI sticky ends(5′-[…]-3′). The ligand binding domains from human and mouse PPARa and human and mouse PPARy were PCR amplified as KpnI/BamHI fragments and cloned in frame to the GAL4 DNA binding domain and the nuclear localisation sequence. The sequence of all plasmid constructs used were confirmed by sequencing. The following expression vectors were used for transient transfections:
Frozen stocks of cells from passage number six were thawed and expanded to passage number eight before transfections. […]

Row | Structure (SMILES) | ratio EC50 (PPARγ): EC50 (PPARα)
1 | CCO[C@@H](Cc1ccc(OCC(=O)N(Cc2ccc(Cl)cc2)Cc2ccc(Cl)cc2)cc1)C(=O)O [Example 22, (2S)-3-(4-{2-[bis(4-Chlorobenzyl)amino]-2-oxoethoxy}phenyl)-2-ethoxypropanoic acid] | >1000
2 | CCO[C@@H](Cc1ccc(OCC(=O)N(Cc2ccc(Cl)cc2)Cc2ccc(C(C)(C)C)cc2)cc1)C(=O)O [Example 23, (2S)-3-(4-{2-[(4-tert-Butylbenzyl)(4-chlorobenzyl)amino]-2-oxoethoxy}phenyl)-2-ethoxypropanoic acid] | >400
3 | CCO[C@@H](Cc1ccc(OCC(=O)N(Cc2ccc(C(F)(F)F)cc2)Cc2ccc(C(F)(F)F)cc2)cc1)C(=O)O [Example 25, (2S)-3-[4-(2-{bis[4-(Trifluoromethyl)benzyl]amino}-2-oxoethoxy)phenyl]-2-ethoxypropanoic acid] | >900
